Laboratory results: patent US7601716B2, “Pyridopyrazines and derivatives thereof as ALK and c-Met inhibitors” (Cephalon, Inc., priority 2006, dated 2009)
Counter-ions that a name gives are not always drawn.

These molecules were tested against T1, c-Met (cytoplasmic domain) (Homo sapiens, UniProt P08581) (assay: c-Met Kinase Assay (ELISA/TRF, PLC-γ substrate)). Details: 3 μM ATP (Km level); read-out: c-Met Kinase Inhibition (IC50).
T1 construct: Reactions were initiated with 30 ng/mL c-Met (cytoplasmic domain, Invitrogen Corporation #PV3143); purchased Invitrogen Corporation PV3143
Format: biochemical
Procedure: Example compounds were tested for their ability to inhibit the kinase activity of baculovirus-expressed ALK using a modification of the ELISA protocol reported for trkA in Angeles, T. S. et al., Anal. Biochem. 1996, 236, 49-55, which is incorporated herein by reference in its entirety. Phosphorylation of the substrate, phospholipase C-gamma (PLC-γ) generated as a fusion protein with glutathione S-transferase (GST) as reported in Rotin, D. et al., EMBO J. 1992, 11, 559-567, which is incorporated herein by reference in its entirety, was detected with a europium-labeled anti-phosphotyrosine antibody and measured by time-resolved fluorescence (TRF). Briefly, each 96-well plate was coated with 100 μL/well of 10 μg/mL substrate (phospholipase C-γ) in Tris-buffered saline (TBS). […] The reaction was initiated by adding enzyme (30 ng/ml ALK) and was allowed to proceed at 37° C. for 15 minutes. Detection of the phosphorylated product was performed by adding 100 μl/well of Eu-N1 labeled PT66 antibody (Perkin Elmer # AD0041). Incubation at 37° C. then proceeded for one (1) hour, followed by addition of 100 μL enhancement solution (Wallac #1244-105). The plate was gently agitated and after thirty minutes, the fluorescence of the resulting solution was measured using the EnVision 2100 (or 2102) multilabel plate reader (Perkin Elmer).
Data analysis was performed using ActivityBase (IDBS, Guilford, UK). IC50 values were calculated by plotting percent inhibition versus log10 of the concentration of compound and fitting to the nonlinear regression sigmoidal dose-response (variable slope) equation in XLFit (IDBS, Guilford, UK).
Reactions were initiated with 30 ng/mL c-Met (cytoplasmic domain, Invitrogen Corporation #PV3143).
For ALK Kinase Inhibition (IC50) in this document: 1 µM ATP (Km level).

T1 sequence (P08581 956-1390 limits assumed): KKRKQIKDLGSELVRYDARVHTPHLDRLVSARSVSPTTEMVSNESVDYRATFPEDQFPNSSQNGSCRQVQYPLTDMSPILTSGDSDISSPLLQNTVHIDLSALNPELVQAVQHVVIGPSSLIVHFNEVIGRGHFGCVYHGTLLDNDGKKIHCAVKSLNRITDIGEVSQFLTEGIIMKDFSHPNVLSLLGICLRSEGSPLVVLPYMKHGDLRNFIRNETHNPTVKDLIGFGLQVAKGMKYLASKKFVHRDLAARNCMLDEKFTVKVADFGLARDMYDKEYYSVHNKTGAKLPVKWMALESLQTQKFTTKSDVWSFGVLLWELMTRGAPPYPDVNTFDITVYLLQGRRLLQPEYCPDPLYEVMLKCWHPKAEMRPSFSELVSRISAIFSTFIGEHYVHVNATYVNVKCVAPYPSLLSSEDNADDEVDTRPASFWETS

O=C1CNc2ncc(-c3cccnc3)cc2N1Cc1c(F)ccc(F)c1Cl [Example 4, 1-(2-Chloro-3,6-difluorobenzyl)-7-pyridin-3-yl-3,4-dihydro-1H-pyrido[2,3-b]pyrazin-2-one, trifluoroacetic acid salt] and CN1CCN(C(=O)c2ccc(-c3cnc4c(c3)N(Cc3c(F)ccc(F)c3Cl)C(=O)CN4)cc2)CC1 [Example 7, 1-(2-Chloro-3,6-difluorobenzyl)-7-[4-(4-methylpiperazine-1-carbonyl)phenyl]-3,4-dihydro-1H-pyrido[2,3-b]pyrazin-2-one] fall in the same range of IC50: 10000 to 100000 nM for the first, 10000 to 100000 nM for the second.

Compared with O=C(NCCN1CCCC1)c1ccc(-c2cnc3c(c2)N(Cc2ccccc2)C(=O)CN3)cc1 [Example 12, 4-(1-Benzyl-2-oxo-1,2,3,4-tetrahydropyrido[2,3-b]pyrazin-7-yl)-N-(2-pyrrolidin-1-yl-ethyl)benzamide, trifluoroacetic acid salt], O=C1CNc2ncc(-c3ccc(C(=O)N4CCC[C@H]4CN4CCCC4)cc3)cc2N1Cc1ccccc1 [Example 13, S-1-Benzyl-7-[4-(2-[(pyrrolidin-1-yl)methyl]pyrrolidine-1-carbonyl)phenyl]-3,4-dihydro-1H-pyrido[2,3-b]pyrazin-2-one, trifluoroacetic acid salt] is higher in IC50: 10000 to 100000 nM for the first, > 100000 nM for the second. The first is the more potent here.

What follows are molecules tested against baculovirus-expressed ALK (Homo sapiens, UniProt Q9UM73) (assay: ALK Kinase Assay (ELISA/TRF, PLC-γ substrate)). Details: read-out: ALK Kinase Inhibition (IC50).
Format: biochemical
Outline: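 An ELISA adapted from a trkA format was used: wells carried GST-fused PLC-γ substrate, and enzyme addition (30 ng/ml ALK) started a 15-minute reaction at 37° C.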

Sequence of baculovirus-expressed ALK (Q9UM73 19-1620): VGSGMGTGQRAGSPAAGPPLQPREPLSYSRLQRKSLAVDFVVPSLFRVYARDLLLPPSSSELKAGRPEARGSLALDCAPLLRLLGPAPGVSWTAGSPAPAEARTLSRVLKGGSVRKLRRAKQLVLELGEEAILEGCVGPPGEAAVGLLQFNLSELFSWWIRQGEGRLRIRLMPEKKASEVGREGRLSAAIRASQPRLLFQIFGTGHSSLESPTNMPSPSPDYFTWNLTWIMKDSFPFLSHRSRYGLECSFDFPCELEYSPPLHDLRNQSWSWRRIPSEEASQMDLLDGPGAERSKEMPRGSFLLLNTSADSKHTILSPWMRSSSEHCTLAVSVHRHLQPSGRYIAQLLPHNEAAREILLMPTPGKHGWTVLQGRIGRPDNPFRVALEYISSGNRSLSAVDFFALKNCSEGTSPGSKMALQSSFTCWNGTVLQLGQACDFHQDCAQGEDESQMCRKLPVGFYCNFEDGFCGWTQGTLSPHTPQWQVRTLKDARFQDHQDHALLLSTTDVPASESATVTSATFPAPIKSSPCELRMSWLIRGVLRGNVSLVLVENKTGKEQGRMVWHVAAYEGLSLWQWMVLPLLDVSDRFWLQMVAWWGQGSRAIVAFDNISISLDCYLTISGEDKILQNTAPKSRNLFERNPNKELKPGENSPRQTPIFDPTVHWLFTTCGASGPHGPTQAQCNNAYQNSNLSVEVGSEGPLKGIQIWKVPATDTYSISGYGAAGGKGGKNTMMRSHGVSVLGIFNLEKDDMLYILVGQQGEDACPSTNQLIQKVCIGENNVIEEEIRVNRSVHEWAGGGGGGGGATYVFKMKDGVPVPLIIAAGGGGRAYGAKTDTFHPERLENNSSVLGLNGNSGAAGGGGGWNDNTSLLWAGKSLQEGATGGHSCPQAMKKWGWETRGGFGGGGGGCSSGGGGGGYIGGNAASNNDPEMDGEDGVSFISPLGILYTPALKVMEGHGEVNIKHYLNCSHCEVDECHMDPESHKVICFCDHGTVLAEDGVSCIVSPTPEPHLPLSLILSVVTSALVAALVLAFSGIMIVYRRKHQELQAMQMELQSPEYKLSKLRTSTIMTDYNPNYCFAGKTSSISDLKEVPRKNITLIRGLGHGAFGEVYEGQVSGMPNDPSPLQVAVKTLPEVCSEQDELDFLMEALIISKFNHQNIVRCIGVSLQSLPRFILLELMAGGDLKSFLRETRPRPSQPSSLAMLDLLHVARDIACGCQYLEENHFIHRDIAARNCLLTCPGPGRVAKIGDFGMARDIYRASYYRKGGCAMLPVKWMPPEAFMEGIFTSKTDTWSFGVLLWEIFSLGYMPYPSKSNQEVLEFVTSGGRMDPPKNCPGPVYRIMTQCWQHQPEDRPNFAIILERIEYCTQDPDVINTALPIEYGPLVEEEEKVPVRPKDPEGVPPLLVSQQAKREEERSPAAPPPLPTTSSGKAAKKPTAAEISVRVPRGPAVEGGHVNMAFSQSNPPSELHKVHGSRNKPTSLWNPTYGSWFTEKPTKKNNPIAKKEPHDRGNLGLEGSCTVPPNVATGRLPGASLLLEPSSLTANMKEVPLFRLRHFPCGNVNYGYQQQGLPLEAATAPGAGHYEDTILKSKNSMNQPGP

O=C1CNc2ncc(-c3cccnc3)cc2N1Cc1c(F)ccc(F)c1Cl [Example 4, 1-(2-Chloro-3,6-difluorobenzyl)-7-pyridin-3-yl-3,4-dihydro-1H-pyrido[2,3-b]pyrazin-2-one, trifluoroacetic acid salt] and CN1CCN(C(=O)c2ccc(-c3cnc4c(c3)N(Cc3c(F)ccc(F)c3Cl)C(=O)CN4)cc2)CC1 [Example 7, 1-(2-Chloro-3,6-difluorobenzyl)-7-[4-(4-methylpiperazine-1-carbonyl)phenyl]-3,4-dihydro-1H-pyrido[2,3-b]pyrazin-2-one] fall in the same range of IC50: 1000 to 10000 nM for the first, 1000 to 10000 nM for the second.

First: O=C(NCCN1CCCC1)c1ccc(-c2cnc3c(c2)N(Cc2ccccc2)C(=O)CN3)cc1 [Example 12, 4-(1-Benzyl-2-oxo-1,2,3,4-tetrahydropyrido[2,3-b]pyrazin-7-yl)-N-(2-pyrrolidin-1-yl-ethyl)benzamide, trifluoroacetic acid salt]
Second: O=C1CNc2ncc(-c3ccc(C(=O)N4CCC[C@H]4CN4CCCC4)cc3)cc2N1Cc1ccccc1 [Example 13, S-1-Benzyl-7-[4-(2-[(pyrrolidin-1-yl)methyl]pyrrolidine-1-carbonyl)phenyl]-3,4-dihydro-1H-pyrido[2,3-b]pyrazin-2-one, trifluoroacetic acid salt]
The IC50 of the first is lower: 1000 to 10000 nM for the first, 10000 to 100000 nM for the second.

First: O=C(c1ccc(-c2cnc3c(c2)N(Cc2cc(Cl)ccc2C(F)(F)F)CCN3)cc1)N1CCN(C(=O)C2CCCO2)CC1 (stereo not shown) [Example 415, (4-{1-[5-Chloro-2-(trifluoromethyl)benzyl]-1,2,3,4-tetrahydropyrido[2,3-b]pyrazin-7-yl}phenyl)-[4-(tetrahydrofuran-2-carbonyl)piperazin-1-yl]methanone]
Second: O=C(c1ccc(-c2cnc3c(c2)N(Cc2cc(Cl)ccc2C(F)(F)F)CCN3)cc1)N1CCN(CC2CCCCC2)CC1 [Example 428, (4-{1-[5-Chloro-2-(trifluoromethyl)benzyl]-1,2,3,4-tetrahydropyrido[2,3-b]pyrazin-7-yl}phenyl)-[4-(cyclohexylmethyl)piperazin-1-yl]methanone]
The IC50 of the first is lower: < 100 nM for the first, 1000 to 10000 nM for the second.

O=C(NCCc1ccccc1)c1ccc(-c2cnc3c(c2)N(Cc2cc(Cl)ccc2C(F)(F)F)CCN3)cc1 [Example 416, 4-{1-[5-Chloro-2-(trifluoromethyl)benzyl]-1,2,3,4-tetrahydropyrido[2,3-b]pyrazin-7-yl}-N-phenethylbenzamide] and O=C(NCc1ccccc1)c1ccc(-c2cnc3c(c2)N(Cc2cc(Cl)ccc2C(F)(F)F)CCN3)cc1 [Example 421, N-Benzyl-4-{1-[5-chloro-2-(trifluoromethyl)benzyl]-1,2,3,4-tetrahydropyrido[2,3-b]pyrazin-7-yl}benzamide] fall in the same range of IC50: 100 to 1000 nM for the first, 100 to 1000 nM for the second.

O=C(NCC1CCCO1)c1ccc(-c2cnc3c(c2)N(Cc2cc(Cl)ccc2C(F)(F)F)CCN3)cc1 (stereo not shown) [Example 417, 4-{1-[5-Chloro-2-(trifluoromethyl)benzyl]-1,2,3,4-tetrahydropyrido[2,3-b]pyrazin-7-yl}-N-(tetrahydrofuran-2-ylmethyl)benzamide] and COc1cccc(CNC(=O)c2ccc(-c3cnc4c(c3)N(Cc3cc(Cl)ccc3C(F)(F)F)CCN4)cc2)c1 [Example 418, 4-{1-[5-Chloro-2-(trifluoromethyl)benzyl]-1,2,3,4-tetrahydropyrido[2,3-b]pyrazin-7-yl}-N-(3-methoxybenzyl)benzamide] fall in the same range of IC50: 100 to 1000 nM for the first, 100 to 1000 nM for the second.

COc1ccc(CNC(=O)c2ccc(-c3cnc4c(c3)N(Cc3cc(Cl)ccc3C(F)(F)F)CCN4)cc2)cc1 [Example 419, 4-{1-[5-Chloro-2-(trifluoromethyl)benzyl]-1,2,3,4-tetrahydropyrido[2,3-b]pyrazin-7-yl}-N-(4-methoxybenzyl)benzamide] and NS(=O)(=O)c1ccc(CNC(=O)c2ccc(-c3cnc4c(c3)N(Cc3cc(Cl)ccc3C(F)(F)F)CCN4)cc2)cc1 [Example 429, 4-{1-[5-Chloro-2-(trifluoromethyl)benzyl]-1,2,3,4-tetrahydropyrido[2,3-b]pyrazin-7-yl}-N-(4-sulfamoylbenzyl)benzamide] fall in the same range of IC50: 100 to 1000 nM for the first, 100 to 1000 nM for the second.

O=C(NCCOc1ccccc1)c1ccc(-c2cnc3c(c2)N(Cc2cc(Cl)ccc2C(F)(F)F)CCN3)cc1 [Example 420, 4-{1-[5-Chloro-2-(trifluoromethyl)benzyl]-1,2,3,4-tetrahydropyrido[2,3-b]pyrazin-7-yl}-N-(2-phenoxyethyl)benzamide] and O=C(NC1CCN(Cc2ccccc2)C1)c1ccc(-c2cnc3c(c2)N(Cc2cc(Cl)ccc2C(F)(F)F)CCN3)cc1 (stereo not shown) [Example 427, N-(1-Benzylpyrrolidin-3-yl)-4-{1-[5-chloro-2-(trifluoromethyl)benzyl]-1,2,3,4-tetrahydropyrido[2,3-b]pyrazin-7-yl}benzamide] fall in the same range of IC50: 100 to 1000 nM for the first, 100 to 1000 nM for the second.

O=C(c1ccc(-c2cnc3c(c2)N(Cc2cc(Cl)ccc2C(F)(F)F)CCN3)cc1)N1CCN(c2cccc(Cl)c2)CC1 [Example 422, [4-(3-Chlorophenyl)piperazin-1-yl]-(4-{1-[5-chloro-2-(trifluoromethyl)benzyl]-1,2,3,4-tetrahydropyrido[2,3-b]pyrazin-7-yl}phenyl)methanone] and O=C(c1ccc(-c2cnc3c(c2)N(Cc2cc(Cl)ccc2C(F)(F)F)CCN3)cc1)N1CCN(c2ccccc2Cl)CC1 [Example 426, [4-(2-Chlorophenyl)piperazin-1-yl]-(4-{1-[5-chloro-2-(trifluoromethyl)benzyl]-1,2,3,4-tetrahydropyrido[2,3-b]pyrazin-7-yl}phenyl)methanone] fall in the same range of IC50: 100 to 1000 nM for the first, 100 to 1000 nM for the second.

O=C(NC1Cc2ccccc2C1)c1ccc(-c2cnc3c(c2)N(Cc2cc(Cl)ccc2C(F)(F)F)CCN3)cc1 [Example 423, 4-{1-[5-Chloro-2-(trifluoromethyl)benzyl]-1,2,3,4-tetrahydropyrido[2,3-b]pyrazin-7-yl}-N-indan-2-ylbenzamide] and O=C(c1ccc(-c2cnc3c(c2)N(Cc2cc(Cl)ccc2C(F)(F)F)CCN3)cc1)N1Cc2ccccc2C1 [Example 433, (4-{1-[5-Chloro-2-(trifluoromethyl)benzyl]-1,2,3,4-tetrahydropyrido[2,3-b]pyrazin-7-yl}phenyl)-(1,3-dihydroisoindol-2-yl)methanone] fall in the same range of IC50: 100 to 1000 nM for the first, 100 to 1000 nM for the second.

O=C(c1ccc(-c2cnc3c(c2)N(Cc2cc(Cl)ccc2C(F)(F)F)CCN3)cc1)N1CCN(CCc2ccccc2)CC1 [Example 424, (4-{1-[5-Chloro-2-(trifluoromethyl)benzyl]-1,2,3,4-tetrahydropyrido[2,3-b]pyrazin-7-yl}phenyl)-(4-phenethylpiperazin-1-yl)methanone] and O=C(c1ccc(-c2cnc3c(c2)N(Cc2cc(Cl)ccc2C(F)(F)F)CCN3)cc1)N1CCC2(CC1)OCc1ccccc12 [Example 434, {4-[1-(5-Chloro-2-trifluoromethyl-benzyl)-1,2,3,4-tetrahydropyrido[2,3-b]pyrazin-7-yl]-phenyl}-(spiro[isobenzofuran-1(3H), 4′-piperidine]-1-yl)methanone] fall in the same range of IC50: 100 to 1000 nM for the first, 100 to 1000 nM for the second.

Compared with O=C(NCc1ccc(-c2ccccc2)cc1)c1ccc(-c2cnc3c(c2)N(Cc2cc(Cl)ccc2C(F)(F)F)CCN3)cc1 [Example 425, N-Biphenyl-4-ylmethyl-4-{1-[5-Chloro-2-(trifluoromethyl)benzyl]-1,2,3,4-tetrahydropyrido[2,3-b]pyrazin-7-yl}benzamide], COc1ccccc1CN(C)C(=O)c1ccc(-c2cnc3c(c2)N(Cc2cc(Cl)ccc2C(F)(F)F)CCN3)cc1 [Example 432, 4-{1-[5-Chloro-2-(trifluoromethyl)benzyl]-1,2,3,4-tetrahydropyrido[2,3-b]pyrazin-7-yl}-N-(2-methoxybenzyl)-N-methylbenzamide] is lower in IC50: 1000 to 10000 nM for the first, 100 to 1000 nM for the second. The second is the more potent here.

First: O=C(c1ccc(-c2cnc3c(c2)N(Cc2cc(Cl)ccc2C(F)(F)F)CCN3)cc1)N1CCC[C@H]1CN1CCCC1 [Example 430, (4-{1-[5-Chloro-2-(trifluoromethyl)benzyl]-1,2,3,4-tetrahydropyrido[2,3-b]pyrazin-7-yl}phenyl)-((S)-2-pyrrolidin-1-ylmethylpyrrolidin-1-yl)methanone]
Second: O=C(c1ccc(-c2cnc3c(c2)N(Cc2cc(Cl)ccc2C(F)(F)F)CCN3)cc1)N1CCCC1c1cccnc1 (stereo not shown) [Example 431, (4-{1-[5-Chloro-2-(trifluoromethyl)benzyl]-1,2,3,4-tetrahydropyrido[2,3-b]pyrazin-7-yl}phenyl)-(2-pyridin-3-yl-pyrrolidin-1-yl)methanone]
The IC50 of the first is lower: < 100 nM for the first, 100 to 1000 nM for the second. The first is the more potent here.
